“Also recorded” adds a separate entry of the source. No end group written: not given here.
How the values were obtained:
TLR2/TLR1 heterodimer = target: T1, TLR2/TLR1 heterodimer (Mus musculus, UniProt Q9QUN7); assay: P3C-induced ERK phosphorylation in primary macrophages (Western analysis); assay type: cell-based; settings: P3C 30 min
T1 construct: endogenous in cells; host or cells: thioglycollate-elicited mouse peritoneal macrophages
Description: FIG. 3. Effect of TIRAP decoy peptides on TLR2 signaling. Thioglycollate-elicited macrophages were incubated in the presence of 20 (black columns) or 40 μM (open columns) of a decoy peptide for 30 min prior to stimulation with P3C (500 ng/ml) (A and C) or P2C (50 ng/ml) (B). Cytokine mRNA expression was measured 1 h after TLR2 stimulation and is normalized to the expression of HPRT gene. C. IL-6 and TNF-α were measured by ELISA in macrophage supernatants collected 5 h after P3C (500 ng/ml) stimulation. D. Peptides TR3 and TR6 inhibit ERK activation induced by TLR2 agonist, P3C. ERK phosphorylation was measured by Western analysis in primary macrophage stimulated by P3C for 30 min.
Cellular protein extracts were isolated by addition of 240 μL per well cold lysate buffer (20 mM Tris, 50 mM NaCl, 1.5 mM MgCl2, 2 mM EDTA, 10 mM NaF, 2 Mm DTT, 1 mM Na3VO4, 1% Triton). Cells were incubated with lysis solution for 30 min on agitator at 4° C. […] After quantification using BioRad protein assay, protein samples were added to Laemmli buffer and then boiled for 10 min. […]
Because of the role TRAP plays in TLR2 signaling, TIRAP TIR-derived decoy peptide effects on TLR2-induced cytokine mRNA expression were examined. […] To confirm the inhibitory effect of TR3 and TR6 on P3C-induced signaling, IL-6 and TNF-α concentration was measured in macrophage supernatants collected 5 h after stimulation of cells with P3C. […]

C57BL/6J mice = assay: Survival after lethal LPS challenge in C57BL/6J mice; assay type: in vivo, mouse; settings: LPS 17.5 μg/g i.p.; peptide 10 nmol/g i.p. 1 h before
Description: FIG. 10. […] (A-E) C57BL/6J mice were injected i.p. with purified Escherichia coli K235 LPS (1 μg/g) or PBS. Peptides (10 nmol/g of animal weight) were injected i.p. (A, B, D, E) or i.v. (C) 1 h before (A, B, and C) or 30 min after (D, E) i.p. injection of LPS. Data in panels A and D show plasma IL-6 and TNF-α levels measured 2 h after LPS challenge. Peptide TM8/9 was used as a non-inhibitory control peptide. Data represent the means±s.e.m. for 6-12 blood samples obtained in at least three independent experiments. *p<0.01. (F, G) C57BL/6J mice were challenged i.p. with a lethal LPS dose (17.5 μg/g). Peptides (10 nmol/g) were injected i.p. 1 h before LPS challenge. […] The statistical significance of changes in mortality and survival time was determined by the Mantel Cox log-rank test using GraphPad Prism software (Version 5.04). *p<0.01.
Eight-week-old C57BL/6J mice were injected with 1 or 17.5 μg/g animal weight of E. coli K235 LPS i.p. Peptides reconstituted in PBS were administered i.p. or i.v. Control groups received equivalent volume of solvent (PBS). The blood samples were collected 1, 2, 4, and 8 h, or 2, 8, and 24 h after LPS challenge. The plasma samples were obtained and kept frozen until TNF-α and IL-6 were measured by ELISA. Survival of animals was monitored every 6-16 h after LPS challenge. All animal experiments were carried out with institutional approval.
We next studied whether inhibitory peptides protect mice from a lethal LPS challenge. TR6, a previously described inhibitory peptide derived from the third helical region of TRAP (30), was also included in this study as an additional control. C57BL/6J mice were injected i.p. with 17.5 μg/g LPS. This dose induced 100% mortality in the control group (FIG. 10F). […] The peptide-treated survivors appeared active and healthy at the time the experiments were terminated, 7 d after injection of LPS.

T1 sequence (Q9QUN7 25-784, one chain of several): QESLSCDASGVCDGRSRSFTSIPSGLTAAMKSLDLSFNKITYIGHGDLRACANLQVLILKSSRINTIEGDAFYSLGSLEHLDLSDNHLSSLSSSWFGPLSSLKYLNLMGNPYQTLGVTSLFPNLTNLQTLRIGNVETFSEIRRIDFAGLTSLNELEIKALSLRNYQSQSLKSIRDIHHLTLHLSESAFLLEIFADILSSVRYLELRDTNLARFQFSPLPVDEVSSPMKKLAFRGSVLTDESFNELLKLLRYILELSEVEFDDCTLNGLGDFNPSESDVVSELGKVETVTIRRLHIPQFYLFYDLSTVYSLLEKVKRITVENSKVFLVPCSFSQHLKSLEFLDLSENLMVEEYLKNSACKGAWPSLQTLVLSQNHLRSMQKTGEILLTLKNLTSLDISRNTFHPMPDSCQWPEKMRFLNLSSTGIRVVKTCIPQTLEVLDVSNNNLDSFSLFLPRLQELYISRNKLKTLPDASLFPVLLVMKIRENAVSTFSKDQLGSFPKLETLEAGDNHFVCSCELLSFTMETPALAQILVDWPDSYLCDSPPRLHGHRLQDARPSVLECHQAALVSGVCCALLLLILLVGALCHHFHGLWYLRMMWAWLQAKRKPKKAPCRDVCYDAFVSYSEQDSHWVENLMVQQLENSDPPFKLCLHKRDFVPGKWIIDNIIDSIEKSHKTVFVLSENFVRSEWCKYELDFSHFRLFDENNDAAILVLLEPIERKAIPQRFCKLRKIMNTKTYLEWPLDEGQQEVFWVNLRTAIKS

Sequence	P3C-induced ERK phosphorylation (TLR2/TLR1 heterodimer)	Survival after lethal LPS challenge (C57BL/6J mice)
RQIKIWFQNRRMKWKKEGSQASLRCF [TR3]	diminished; also recorded: inhibit	–
RQIKIWFQNRRMKWKKPGFLRDPWCKYQML [TR6]	diminished; also recorded: inhibit	improved animal survival comparably to TM6

— patent publication US20130203649A1, “INHIBITORS OF TLR SIGNALING BY TARGETING TIR DOMAIN INTERFACES” (UNIVERSITY OF MARYLAND, BALTIMORE, priority 2012, published 2013)
